According to ChEMBL document CHEMBL1131452 (J Med Chem, 1998):
pIC50: −log10 of the molar value.

Tests used:
Homo sapiens [1] = organism: Homo sapiens; experiment: Evaluated in vitro for its inhibitory activity on LPS-induced TNF-Alpha release in human monocyte.; format: functional
Phosphodiesterase 4 = Phosphodiesterase 4 (Homo sapiens, UniProt P27815+Q08499+Q07343+Q08493); experiment: Evaluated in vitro for its inhibitory activity on human monocyte cytosol Phosphodiesterase type 4 (PDE4).; format: protein assay
Homo sapiens [2] = organism: Homo sapiens; experiment: Evaluated in vitro for its inhibitory activity on LPS-induced TNF-Alpha release in human whole blood.; format: functional, organism-based
[3] = target: 3',5'-cyclic-AMP phosphodiesterase 4B (Homo sapiens, UniProt Q07343); experiment: Inhibition of recombinant human Phosphodiesterase 4B
3',5'-cyclic-AMP phosphodiesterase 4B, sequence (Q07343 whole entry): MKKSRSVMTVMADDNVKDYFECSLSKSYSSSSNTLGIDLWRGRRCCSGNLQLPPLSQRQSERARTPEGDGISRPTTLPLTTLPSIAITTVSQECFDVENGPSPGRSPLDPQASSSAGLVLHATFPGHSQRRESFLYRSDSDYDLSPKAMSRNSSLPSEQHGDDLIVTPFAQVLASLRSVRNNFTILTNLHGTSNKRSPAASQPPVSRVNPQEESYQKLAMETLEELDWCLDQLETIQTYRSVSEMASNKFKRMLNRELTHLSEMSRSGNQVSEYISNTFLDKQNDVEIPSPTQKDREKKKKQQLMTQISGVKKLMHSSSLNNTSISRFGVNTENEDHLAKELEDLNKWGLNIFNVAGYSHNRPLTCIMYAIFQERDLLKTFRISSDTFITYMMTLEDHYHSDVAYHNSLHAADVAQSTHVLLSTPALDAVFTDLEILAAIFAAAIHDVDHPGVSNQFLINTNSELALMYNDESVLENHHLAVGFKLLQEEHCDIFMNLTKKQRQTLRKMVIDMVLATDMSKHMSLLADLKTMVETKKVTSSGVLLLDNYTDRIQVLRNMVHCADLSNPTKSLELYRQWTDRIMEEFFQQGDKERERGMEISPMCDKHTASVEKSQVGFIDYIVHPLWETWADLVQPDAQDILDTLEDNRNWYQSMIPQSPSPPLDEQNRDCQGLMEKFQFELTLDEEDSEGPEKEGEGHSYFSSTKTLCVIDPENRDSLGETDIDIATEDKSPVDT

[4] = target: 3',5'-cyclic-AMP phosphodiesterase 4A (Homo sapiens, UniProt P27815); experiment: Evaluated in vitro for its inhibitory activity on unpurified recombinant Phosphodiesterase type 4A (PDE4A).
3',5'-cyclic-AMP phosphodiesterase 4A, sequence (P27815 whole entry): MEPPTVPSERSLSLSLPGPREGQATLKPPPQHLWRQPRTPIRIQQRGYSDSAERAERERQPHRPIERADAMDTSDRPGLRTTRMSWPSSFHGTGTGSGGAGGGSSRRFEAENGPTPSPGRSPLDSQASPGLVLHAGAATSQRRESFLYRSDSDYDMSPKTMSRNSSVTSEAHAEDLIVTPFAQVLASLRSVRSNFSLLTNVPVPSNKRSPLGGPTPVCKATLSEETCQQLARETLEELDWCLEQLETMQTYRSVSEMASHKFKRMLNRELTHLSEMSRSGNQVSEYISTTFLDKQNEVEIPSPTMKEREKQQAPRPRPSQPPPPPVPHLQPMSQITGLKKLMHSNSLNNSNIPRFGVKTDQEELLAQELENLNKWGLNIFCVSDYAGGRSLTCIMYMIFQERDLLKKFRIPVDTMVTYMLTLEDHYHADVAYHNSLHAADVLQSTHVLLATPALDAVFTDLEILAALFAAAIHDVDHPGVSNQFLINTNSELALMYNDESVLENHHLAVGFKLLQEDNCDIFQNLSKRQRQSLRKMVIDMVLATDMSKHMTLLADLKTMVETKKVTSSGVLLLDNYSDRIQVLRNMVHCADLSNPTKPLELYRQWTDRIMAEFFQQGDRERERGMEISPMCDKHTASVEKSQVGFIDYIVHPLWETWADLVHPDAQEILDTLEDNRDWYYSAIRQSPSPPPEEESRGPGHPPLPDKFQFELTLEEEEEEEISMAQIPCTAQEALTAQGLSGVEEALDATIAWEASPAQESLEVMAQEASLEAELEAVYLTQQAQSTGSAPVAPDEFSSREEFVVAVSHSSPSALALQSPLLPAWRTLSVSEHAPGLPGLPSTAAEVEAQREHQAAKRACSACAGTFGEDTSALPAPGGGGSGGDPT

[5] = target: 3',5'-cyclic-AMP phosphodiesterase 4C (Homo sapiens, UniProt Q08493); experiment: Evaluated in vitro for its inhibitory activity on unpurified recombinant Phosphodiesterase 4C
3',5'-cyclic-AMP phosphodiesterase 4C, sequence (Q08493 whole entry): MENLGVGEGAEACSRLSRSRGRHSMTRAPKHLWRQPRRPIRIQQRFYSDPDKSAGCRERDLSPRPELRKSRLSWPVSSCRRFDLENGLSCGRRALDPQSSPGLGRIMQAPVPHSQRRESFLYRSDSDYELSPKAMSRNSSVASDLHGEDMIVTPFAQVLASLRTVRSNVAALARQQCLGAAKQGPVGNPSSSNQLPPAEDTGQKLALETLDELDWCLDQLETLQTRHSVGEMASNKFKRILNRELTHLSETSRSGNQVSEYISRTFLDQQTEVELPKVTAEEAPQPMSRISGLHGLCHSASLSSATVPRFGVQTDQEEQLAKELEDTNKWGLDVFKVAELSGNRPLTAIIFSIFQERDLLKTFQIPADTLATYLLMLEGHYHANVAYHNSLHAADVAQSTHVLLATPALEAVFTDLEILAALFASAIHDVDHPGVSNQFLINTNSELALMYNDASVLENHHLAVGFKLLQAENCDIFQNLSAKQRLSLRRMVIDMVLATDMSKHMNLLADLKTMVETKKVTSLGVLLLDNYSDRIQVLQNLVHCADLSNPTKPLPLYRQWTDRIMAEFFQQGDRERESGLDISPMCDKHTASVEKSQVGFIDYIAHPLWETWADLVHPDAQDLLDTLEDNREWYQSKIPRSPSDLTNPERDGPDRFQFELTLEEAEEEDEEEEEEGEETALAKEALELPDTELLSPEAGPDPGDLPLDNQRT

[6] = target: 3',5'-cyclic-AMP phosphodiesterase 4D (Homo sapiens, UniProt Q08499); experiment: In vitro inhibitory activity on unpurified recombinant Phosphodiesterase 4D
3',5'-cyclic-AMP phosphodiesterase 4D, sequence (Q08499 whole entry): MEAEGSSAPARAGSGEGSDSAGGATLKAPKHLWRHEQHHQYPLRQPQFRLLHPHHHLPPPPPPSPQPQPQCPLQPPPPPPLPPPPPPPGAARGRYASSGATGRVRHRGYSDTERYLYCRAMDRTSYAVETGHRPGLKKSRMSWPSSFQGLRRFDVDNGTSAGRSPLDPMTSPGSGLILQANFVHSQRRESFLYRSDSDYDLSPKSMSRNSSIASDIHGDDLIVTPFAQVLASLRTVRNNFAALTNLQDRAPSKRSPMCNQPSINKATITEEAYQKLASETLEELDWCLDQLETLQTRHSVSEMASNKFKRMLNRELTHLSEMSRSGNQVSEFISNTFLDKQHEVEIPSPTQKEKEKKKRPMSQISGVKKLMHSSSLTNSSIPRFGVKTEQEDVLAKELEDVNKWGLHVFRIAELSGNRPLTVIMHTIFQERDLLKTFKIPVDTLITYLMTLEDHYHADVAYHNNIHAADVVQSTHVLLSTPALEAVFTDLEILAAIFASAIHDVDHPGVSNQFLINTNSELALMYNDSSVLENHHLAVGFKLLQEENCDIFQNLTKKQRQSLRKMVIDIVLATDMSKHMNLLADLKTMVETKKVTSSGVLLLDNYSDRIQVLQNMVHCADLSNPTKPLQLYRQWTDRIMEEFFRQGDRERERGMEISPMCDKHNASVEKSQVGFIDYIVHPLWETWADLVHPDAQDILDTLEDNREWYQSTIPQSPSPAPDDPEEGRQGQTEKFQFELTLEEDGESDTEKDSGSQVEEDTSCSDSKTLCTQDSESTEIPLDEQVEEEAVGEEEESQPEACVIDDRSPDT

pIC50 (Homo sapiens [1]) | IC50 (Phosphodiesterase 4) [nM] | pIC50 (Homo sapiens [2]) | pIC50 [3] | pIC50 [4] | pIC50 [5] | pIC50 [6] | SMILES
5.37 | 3930 |  |  |  |  |  | COc1ccc(C2=NOC(C(N)=O)C2)cc1OC1CCCC1 (configuration not stated)
6.42 |  | 6.18 |  |  |  |  | COc1ccc(C2CNC(=O)C2)cc1OC1CCCC1 (configuration not stated) [ROLIPRAM]
6.07 | 1650 |  |  |  |  |  | COc1ccc(-c2cc(C(=O)NO)on2)cc1OC1CCCC1
 |  | 7.13 | 7.96 | 8.01 | 7.02 | 8.00 | COc1ccc(C2=NOC(C)(C(=O)NO)C2)cc1OC1CCCC1 (configuration not stated)
 |  | 7.52 | 8.68 | 8.66 | 7.74 | 8.57 | COc1ccc(C2=NOC(C(=O)NO)C2)cc1OC1CCCC1 (configuration not stated)
6.64 | 178 |  |  |  |  |  | CCC1(C(=O)NO)CC(c2ccc(OC)c(OC3CCCC3)c2)=NO1 (configuration not stated)
6.86 | 221 |  |  |  |  |  | COc1ccc(C2=NOC(CC(=O)NO)C2)cc1OC1CCCC1 (configuration not stated)
7.49 | 249 | 7.18 | 7.75 | 7.57 | 7.82 | 7.81 | COc1ccc(C(=O)NCC(=O)NO)cc1OC1CCCC1
4.99 | 3960 |  |  |  |  |  | COc1ccc(C2=NOC(C(=O)N(C)O)C2)cc1OC1CCCC1 (configuration not stated)
< 4.30 | 1760 |  |  |  |  |  | COc1ccc(C(=O)NCC(=O)O)cc1OC1CCCC1
5.99 | 567 |  |  |  |  |  | CCCC1(C(=O)NO)CC(c2ccc(OC)c(OC3CCCC3)c2)=NO1 (configuration not stated)
 |  | 7.30 | 7.65 | 7.29 | 6.90 | 7.69 | COc1ccc(C(=O)NC(C)C(=O)NO)cc1OC1CCCC1 (configuration not stated)
4.45 | 2540 |  |  |  |  |  | COc1ccc(C2=NOC(C(=O)O)C2)cc1OC1CCCC1 (configuration not stated)

SMILES | pIC50 (Homo sapiens [1]) | IC50 (Phosphodiesterase 4) [nM] | pIC50 (Homo sapiens [2]) | pIC50 [3] | pIC50 [4] | pIC50 [5] | pIC50 [6]
COc1ccc(C(=O)Nc2c(Cl)cncc2Cl)cc1OC1CCCC1 | 8.70 |  | 7.10 |  |  |  | 
